# In ChEMBL document CHEMBL1129504, “Structure-activity relationship for antineoplastic imidazoacridinones: synthesis and antileukemic activity in vivo” (1996):
# Tested on: Mus musculus
# Assay: In vivo activity against murine P388 leukemia in mice at optimal dose 70 mg/kg/day
# Assay type: functional
compound,measurement,value
CN(C)CCCCCNc1ccc2ncn3c4ccc(O)cc4c(=O)c1c23,T/C,172%
